From publication PMC10578023 (Cell Communication and Signaling : CCS, 2023)

How the values were obtained:
[1] = target: T1, human TYK2 pseudokinase domain (JH2) (Homo sapiens, UniProt P29597); experiment: TYK2 pseudokinase domain (JH2) binding assay, HTRF tracer competition
T1 construct: was added to the recombinant TYK2 pseudokinase domain
Procedure: An assay that measures the ability of a compound to bind to the TYK2 pseudokinase domain through competition with a tracer was employed. First, human polyhistidine-tag (his-tagged) TYK2 pseudokinase was added to different concentrations of QL-1200186. […] After 1 h at RT, the homogeneous time-resolved fluorescence (HTRF) signal was measured on a plate reader (Envision™; PerkinElmer, Waltham, MA, USA).

JAK1 JH2 domain = JAK1 JH2 domain (Homo sapiens, UniProt P23458); experiment: JAK1 JH2 binding assay
[2] = test system: panel of 207 kinase proteins; experiment: Kinase selectivity panel, ADP-Glo kinase assay; type: biochemical, human; settings: 1 μM
Procedure: The selectivity of QL-1200186 was measured using a panel of 207 kinase proteins. QL-1200186 (final concentration = 1 μM) was placed in a 384-well plate. Different kinase solutions were configured in kinase buffer, HEPES (50 mM), MgCl2 (10 mM), 0.01% Brij, dithiothreitol (2 mM), and then transferred to 384-well plates. After incubation for 10 min at RT, the substrate and adenosine triphosphate were added, and the reaction was allowed to continue for 60 min. Kinase selectivity was determined by the ADP-Glo™ Kinase Assay (V9103; Promega, Fitchburg, WI, USA). Finally, a microplate reader (BMG Labtech, Ortenberg, Germany) was used to measure the luminescence signal. After data analysis, heatmaps and kinase selection trees were drawn using Prism 8.0.2 (GraphPad, La Jolla, CA, USA) and KinMap (www.kinmap.org/), respectively.

[3] = test system: forty-four safety targets; experiment: In vitro off-target panel of 44 safety targets; settings: 10 µM
Procedure: The pharmacologic safety of QL-1200186 was tested by analyzing forty-four safety targets in vitro. The off-target effects of QL-1200186 on 24 G protein-coupled receptors (β1, β2, D1, H2, A2A, CB1, CB2,5-HT1A, 5-HT1B and D2S) were evaluated by measuring the changes in cyclic adenosine monophosphate and IP-1 levels. The effects of QL-1200186 on the current changes of eight ion-channel targets were determined by methods based on fluorescent imaging plate reading and patch clamps. Using stable transfer or transient plasmid transfer, the excitatory and inhibitory effects of QL-1200186 on glucocorticoid receptors and androgen receptors in the nucleus were determined by the change in luciferase expression. The inhibitory effects of QL-1200186 on seven enzymes (including cyclo-oxygenase-2, phosphodiesterase (PDE) 3A and PDE4D2) were evaluated by biochemical methods based on luminescence and fluorescence. After data analyses, radar charts were used to display the results.

TYK2/JAK2 = experiment: IL-12/IL-18-induced IFNγ production in NK-92 cells, ELISA; type: cell-based, human
Procedure: The inhibitory effect of QL-1200186 on IL-12/IL-18-induced IFNγ production in NK cells or human whole blood was determined by enzyme-linked immunosorbent assay (ELISA). NK92 cells were stimulated with recombinant human IL-12 (2 ng/mL; 200–12; PeproTech, Cranbury, NJ, USA) and recombinant human IL-18 (5 ng/mL; 9124-IL-050/CF; R&D Systems, Minneapolis, MN, USA) with or without QL-1200186 for 24 h at 37 °C. For human whole blood cells, whole blood (200 μL) was preincubated with the compound for 1 h and then stimulated with recombinant human IL-12 (2 ng/mL) or recombinant human IL-18 (10 ng/mL) for 24 h. After centrifugation, the supernatant was collected, and IFNγ production in the supernatant was measured with human IFNγ ELISA kits according to the manufacturer’s instructions (Biolegend, 430,104).

JAK2/JAK2 = experiment: TPO-stimulated pSTAT3/STAT5 in platelets of human whole blood; type: cell-based
Procedure: Stimulation was terminated by adding Lyse/Fix buffer. Staining with BUV786 mouse anti-human CD61 antibody (744384; BD Biosciences) was carried out, followed by washing, permeabilization and staining with PE mouse anti-human STAT3 antibody (651004; BD Biosciences) and APC mouse anti-human STAT5 antibody (562076; BD Biosciences), as described above. The expression of p-STAT3 and STAT5 was quantified by the MFI after the number of CD61-positive platelets was optimized.

[4] = Caco-2 permeability assay; type: in vitro ADME
Procedure: (§1) The ADME properties of QL-1200186 in vitro were measured by the following assays: Caco-2 permeability assay, CYP inhibition assay, protein binding assay, and liver microsome assay. Each assay was performed as previously described.

Plasma protein binding = type: in vitro ADME
Procedure: as §1

[5] = Liver microsome metabolic stability; type: in vitro ADME
Procedure: as §1

CYP450 1A2 = CYP450 1A2 (Homo sapiens, UniProt P05177); type: in vitro ADME
Procedure: as §1

CYP450 3A4/5 = experiment: CYP inhibition assay; type: in vitro ADME
Procedure: as §1

Met ID in vitro = type: in vitro ADME, human

T1 sequence (P29597 589-875 limits assumed): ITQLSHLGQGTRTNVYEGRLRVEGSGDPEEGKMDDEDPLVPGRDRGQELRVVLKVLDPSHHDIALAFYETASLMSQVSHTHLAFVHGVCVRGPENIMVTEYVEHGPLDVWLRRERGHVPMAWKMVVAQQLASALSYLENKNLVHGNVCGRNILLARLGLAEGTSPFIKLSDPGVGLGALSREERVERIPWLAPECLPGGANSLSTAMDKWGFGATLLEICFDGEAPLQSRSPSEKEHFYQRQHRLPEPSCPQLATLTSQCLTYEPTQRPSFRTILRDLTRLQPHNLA
Chain of CYP450 1A2 (P05177 whole entry): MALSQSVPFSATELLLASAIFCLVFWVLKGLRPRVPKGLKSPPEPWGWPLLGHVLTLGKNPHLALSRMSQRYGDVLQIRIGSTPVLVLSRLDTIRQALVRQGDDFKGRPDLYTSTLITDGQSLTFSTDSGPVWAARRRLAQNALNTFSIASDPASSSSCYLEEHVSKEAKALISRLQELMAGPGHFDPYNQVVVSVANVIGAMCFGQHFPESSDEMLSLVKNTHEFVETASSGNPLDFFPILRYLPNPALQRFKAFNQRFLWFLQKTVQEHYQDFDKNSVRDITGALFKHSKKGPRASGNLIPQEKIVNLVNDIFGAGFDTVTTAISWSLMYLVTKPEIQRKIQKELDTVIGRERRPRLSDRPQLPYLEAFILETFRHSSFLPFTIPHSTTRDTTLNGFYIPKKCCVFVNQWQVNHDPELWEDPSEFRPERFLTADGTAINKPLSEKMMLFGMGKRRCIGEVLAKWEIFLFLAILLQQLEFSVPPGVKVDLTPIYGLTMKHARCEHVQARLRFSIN
Chain of JAK1 JH2 domain (P23458 583-855 limits assumed): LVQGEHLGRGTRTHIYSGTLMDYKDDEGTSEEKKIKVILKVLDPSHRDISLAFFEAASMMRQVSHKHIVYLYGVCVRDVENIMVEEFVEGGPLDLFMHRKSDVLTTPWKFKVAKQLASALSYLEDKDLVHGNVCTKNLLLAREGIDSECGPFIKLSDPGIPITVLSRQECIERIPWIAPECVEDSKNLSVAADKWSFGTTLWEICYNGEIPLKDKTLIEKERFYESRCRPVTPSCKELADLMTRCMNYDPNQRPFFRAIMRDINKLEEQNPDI

## CNC(=O)c1cnc2cc1Nc1cc(cc(-c3ccn(C)n3)c1OC)CCOCc1cccc(n1)N2 [QL-1200186, 5^6-methoxy-N-methyl-5^5-(1-methyl-1H-pyrazol-3-yl)-8-oxa-2,4-diaza-1(2,6),3(2,4)-dipyridina-5(1,3)-benzenacyclononaphane-3^5-carboxamide]
[1]; TYK2 JH2 over JAK1 JH2 binding
  Selectivity fold (TYK2/JAK1): 164 fold
[1]; recombinant TYK2 JH2 domain
  IC50: 0.06 nM
JAK1 JH2 domain
  IC50: 9.85 nM
[2]
  inhibition rates for all 207 kinases tested: below 50%
[3]
  in vitro off-target safety, 44 safety targets: suitable safety
TYK2/JAK2
  IC50: 32.5 nM
JAK2/JAK2; @10μM
  TPO-pSTAT3/STAT5 in human whole blood (JAK2/JAK2) inhibition: no inhibition @10μM
JAK2/JAK2; human whole blood
  activity in thrombopoietin (TPO)-induced JAK2/JAK2 signaling: no activity
[4]
  Caco-2 ER (efflux ratio): 1.4
Plasma protein binding; Dog
  PPB (%, free): 3.7%
Plasma protein binding; Human
  PPB (%, free): 0.844%
Plasma protein binding; Monkey
  PPB (%, free): 2.8%
Plasma protein binding; Mouse
  PPB (%, free): 0.201%
Plasma protein binding; Rat
  PPB (%, free): 1.3%
[5]; Dog
  Metabolic Stability L.M. T1/2: 1.42 h
[5]; Human
  Metabolic Stability L.M. T1/2: > 3.107 h
[5]; Monkey
  Metabolic Stability L.M. T1/2: 1.2 h
[5]; Mouse
  Metabolic Stability L.M. T1/2: 1.28 h
[5]; Rat
  Metabolic Stability L.M. T1/2: 1.823 h
CYP450 1A2
  IC50: > 50000 nM
CYP450 3A4/5
  IC50: > 50000 nM
Met ID in vitro
  specific human metabolites in vitro (Met ID): no specific human metabolites in vitro
